What was measured:
Test in all cases: relative viability (fraction of vehicle control); higher = more viable / less inhibited
Settings in all cases: treatment time: 5 days
MIAPACA2 = tested on: MIAPACA2
Procedure: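 CCK-8 viability of MIAPACA2 cells with empty vector or constitutively active YAP S127A, treated with KRAS G12C inhibitors for 5 days, normalised to vehicle control.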

KYSE410 = tested on: KYSE410
Procedure: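 CCK-8 viability of KYSE410 cells transfected with control, YAP/TAZ or TEAD1-4 siRNAs and treated with KRAS G12C inhibitors for 5 days. Values are normalised to vehicle control.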

H2030 = tested on: H2030
Procedure: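 CCK-8 viability of H2030 cells transfected with control, YAP/TAZ or TEAD1-4 siRNAs and treated with KRAS G12C inhibitors for 5 days. Values are normalised to vehicle control.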

H358 = tested on: H358
Procedure: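 CCK-8 viability of H358 cells with empty vector or constitutively active YAP S127A, treated with KRAS G12C inhibitors for 5 days. Absorbance at 450 nm normalised to vehicle control.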

C=C(F)C(=O)N1CCN(c2nc(OC[C@@H]3CCCN3C)nc3c2CCN(c2cccc4cccc(Cl)c24)C3)C[C@@H]1CC#N [MRTX849]
relative viability
Settings | H358 | H2030 | KYSE410 | MIAPACA2
log10 concentration (uM): 0, ectopic expression: YAP S127A | 0.6 | – | – | 0.696
log10 concentration (uM): 0, ectopic expression: empty vector (YAP experiment) | 0.139 | – | – | 0.0786
log10 concentration (uM): 0, siRNA knockdown: TEAD1-4 siRNA 1 | – | 0.333 | 0.319 | –
log10 concentration (uM): 0, siRNA knockdown: TEAD1-4 siRNA 2 | – | 0.289 | 0.212 | –
log10 concentration (uM): 0, siRNA knockdown: YAP/TAZ siRNA 1 | – | 0.531 | 0.273 | –
log10 concentration (uM): 0, siRNA knockdown: YAP/TAZ siRNA 2 | – | 0.441 | 0.298 | –
log10 concentration (uM): 0, siRNA knockdown: negative control siRNA | – | 0.768 | 0.646 | –
log10 concentration (uM): 0.69897, ectopic expression: YAP S127A | 0.144 | – | – | 0.15
log10 concentration (uM): 0.69897, ectopic expression: empty vector (YAP experiment) | 0.0333 | – | – | 0.0127
log10 concentration (uM): 0.69897, siRNA knockdown: TEAD1-4 siRNA 1 | – | 0.0176 | 0.0217 | –
log10 concentration (uM): 0.69897, siRNA knockdown: TEAD1-4 siRNA 2 | – | 0.0364 | 0.0146 | –
log10 concentration (uM): 0.69897, siRNA knockdown: YAP/TAZ siRNA 1 | – | 0.0187 | 0.00876 | –
log10 concentration (uM): 0.69897, siRNA knockdown: YAP/TAZ siRNA 2 | – | 0.0145 | 0.00963 | –
log10 concentration (uM): 0.69897, siRNA knockdown: negative control siRNA | – | 0.162 | 0.0324 | –
log10 concentration (uM): -0.30103, ectopic expression: YAP S127A | 0.811 | – | – | 0.687
log10 concentration (uM): -0.30103, ectopic expression: empty vector (YAP experiment) | 0.217 | – | – | 0.0877
log10 concentration (uM): -0.30103, siRNA knockdown: TEAD1-4 siRNA 1 | – | 0.413 | 0.419 | –
log10 concentration (uM): -0.30103, siRNA knockdown: TEAD1-4 siRNA 2 | – | 0.358 | 0.317 | –
log10 concentration (uM): -0.30103, siRNA knockdown: YAP/TAZ siRNA 1 | – | 0.458 | 0.381 | –
log10 concentration (uM): -0.30103, siRNA knockdown: YAP/TAZ siRNA 2 | – | 0.496 | 0.395 | –
log10 concentration (uM): -0.30103, siRNA knockdown: negative control siRNA | – | 0.814 | 0.715 | –
log10 concentration (uM): -1, ectopic expression: YAP S127A | 0.733 | – | – | 0.902
log10 concentration (uM): -1, ectopic expression: empty vector (YAP experiment) | 0.328 | – | – | 0.217
log10 concentration (uM): -1, siRNA knockdown: TEAD1-4 siRNA 1 | – | 0.468 | 0.582 | –
log10 concentration (uM): -1, siRNA knockdown: TEAD1-4 siRNA 2 | – | 0.437 | 0.45 | –
log10 concentration (uM): -1, siRNA knockdown: YAP/TAZ siRNA 1 | – | 0.409 | 0.481 | –
log10 concentration (uM): -1, siRNA knockdown: YAP/TAZ siRNA 2 | – | 0.238 | 0.445 | –
log10 concentration (uM): -1, siRNA knockdown: negative control siRNA | – | 0.814 | 0.788 | –
log10 concentration (uM): -1.30103, ectopic expression: YAP S127A | 0.811 | – | – | 0.924
log10 concentration (uM): -1.30103, ectopic expression: empty vector (YAP experiment) | 0.361 | – | – | 0.309
log10 concentration (uM): -1.30103, siRNA knockdown: TEAD1-4 siRNA 1 | – | 0.473 | 0.704 | –
log10 concentration (uM): -1.30103, siRNA knockdown: TEAD1-4 siRNA 2 | – | 0.428 | 0.572 | –
log10 concentration (uM): -1.30103, siRNA knockdown: YAP/TAZ siRNA 1 | – | 0.625 | 0.559 | –
log10 concentration (uM): -1.30103, siRNA knockdown: YAP/TAZ siRNA 2 | – | 0.322 | 0.525 | –
log10 concentration (uM): -1.30103, siRNA knockdown: negative control siRNA | – | 0.795 | 0.814 | –
log10 concentration (uM): -2, ectopic expression: YAP S127A | 1.02 | – | – | 0.979
log10 concentration (uM): -2, ectopic expression: empty vector (YAP experiment) | 0.678 | – | – | 0.917
log10 concentration (uM): -2, siRNA knockdown: TEAD1-4 siRNA 1 | – | 0.676 | 0.871 | –
log10 concentration (uM): -2, siRNA knockdown: TEAD1-4 siRNA 2 | – | 0.707 | 0.648 | –
log10 concentration (uM): -2, siRNA knockdown: YAP/TAZ siRNA 1 | – | 0.901 | 0.767 | –
log10 concentration (uM): -2, siRNA knockdown: YAP/TAZ siRNA 2 | – | 0.521 | 0.735 | –
log10 concentration (uM): -2, siRNA knockdown: negative control siRNA | – | 0.836 | 0.942 | –
log10 concentration (uM): -2.30103, ectopic expression: YAP S127A | 1.1 | – | – | 1.01
log10 concentration (uM): -2.30103, ectopic expression: empty vector (YAP experiment) | 0.783 | – | – | 0.986
log10 concentration (uM): -2.30103, siRNA knockdown: TEAD1-4 siRNA 1 | – | 0.774 | 0.873 | –
log10 concentration (uM): -2.30103, siRNA knockdown: TEAD1-4 siRNA 2 | – | 0.625 | 0.793 | –
log10 concentration (uM): -2.30103, siRNA knockdown: YAP/TAZ siRNA 1 | – | 0.958 | 0.855 | –
log10 concentration (uM): -2.30103, siRNA knockdown: YAP/TAZ siRNA 2 | – | 0.707 | 0.868 | –
log10 concentration (uM): -2.30103, siRNA knockdown: negative control siRNA | – | 0.836 | 0.937 | –
log10 concentration (uM): -3, ectopic expression: YAP S127A | 1.27 | – | – | 1.06
log10 concentration (uM): -3, ectopic expression: empty vector (YAP experiment) | 0.828 | – | – | 0.964
log10 concentration (uM): -3, siRNA knockdown: TEAD1-4 siRNA 1 | – | 1.02 | 0.888 | –
log10 concentration (uM): -3, siRNA knockdown: TEAD1-4 siRNA 2 | – | 0.844 | 0.869 | –
log10 concentration (uM): -3, siRNA knockdown: YAP/TAZ siRNA 1 | – | 1.07 | 0.936 | –
log10 concentration (uM): -3, siRNA knockdown: YAP/TAZ siRNA 2 | – | 0.756 | 0.915 | –
log10 concentration (uM): -3, siRNA knockdown: negative control siRNA | – | 0.909 | 0.981 | –
log10 concentration (uM): -4, ectopic expression: YAP S127A | 1.12 | – | – | 0.993
log10 concentration (uM): -4, ectopic expression: empty vector (YAP experiment) | 0.778 | – | – | 0.997
log10 concentration (uM): -4, siRNA knockdown: TEAD1-4 siRNA 1 | – | 1.14 | 1.04 | –
log10 concentration (uM): -4, siRNA knockdown: TEAD1-4 siRNA 2 | – | 0.984 | 0.951 | –
log10 concentration (uM): -4, siRNA knockdown: YAP/TAZ siRNA 1 | – | 1.17 | 0.946 | –
log10 concentration (uM): -4, siRNA knockdown: YAP/TAZ siRNA 2 | – | 0.911 | 1.01 | –
log10 concentration (uM): -4, siRNA knockdown: negative control siRNA | – | 0.97 | 0.987 | –

— the supplement of paper PMC11665569
